Assay results reported in patent US20240182531A1, “KV1.3 Blockers” (priority 2021, published 2024).
Where two headings read alike, the source gives them in different places. Where a SMILES comes first, the peptide text is derived from it. Bridges are numbered along the chain shown (N, C = ends). [ ]: non-standard residue; d: D form. Nle = CCCC[C@H](N)C(=O)O

Experiments:
human Kv1.1 = molecular target: T1, human Kv1.1 (Homo sapiens, UniProt Q09470); assay: cell-based; settings: ratio of patch clamp IC50 values
T1 construct: expressed in transfected cells; host or cells: CHO
T1 sequence (Q09470 whole entry): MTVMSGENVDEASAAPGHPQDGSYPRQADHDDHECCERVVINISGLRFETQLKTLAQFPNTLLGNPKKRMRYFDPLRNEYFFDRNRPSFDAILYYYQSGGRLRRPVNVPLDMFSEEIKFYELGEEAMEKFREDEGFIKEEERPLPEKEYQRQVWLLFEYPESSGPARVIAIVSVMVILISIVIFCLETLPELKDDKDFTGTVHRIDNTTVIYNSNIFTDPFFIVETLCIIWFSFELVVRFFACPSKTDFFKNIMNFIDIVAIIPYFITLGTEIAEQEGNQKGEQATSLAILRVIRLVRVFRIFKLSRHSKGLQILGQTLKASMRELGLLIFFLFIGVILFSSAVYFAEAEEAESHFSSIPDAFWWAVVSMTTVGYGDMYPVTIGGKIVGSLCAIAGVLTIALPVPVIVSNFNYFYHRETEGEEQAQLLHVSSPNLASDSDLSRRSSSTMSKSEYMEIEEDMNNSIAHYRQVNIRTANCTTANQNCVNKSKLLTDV

human Kv1.2 = molecular target: T2, human Kv1.2 (Homo sapiens, UniProt P16389); assay: cell-based; settings: ratio of patch clamp IC50 values
T2 construct: expressed in transfected cells; host or cells: CHO
T2 sequence (P16389 whole entry): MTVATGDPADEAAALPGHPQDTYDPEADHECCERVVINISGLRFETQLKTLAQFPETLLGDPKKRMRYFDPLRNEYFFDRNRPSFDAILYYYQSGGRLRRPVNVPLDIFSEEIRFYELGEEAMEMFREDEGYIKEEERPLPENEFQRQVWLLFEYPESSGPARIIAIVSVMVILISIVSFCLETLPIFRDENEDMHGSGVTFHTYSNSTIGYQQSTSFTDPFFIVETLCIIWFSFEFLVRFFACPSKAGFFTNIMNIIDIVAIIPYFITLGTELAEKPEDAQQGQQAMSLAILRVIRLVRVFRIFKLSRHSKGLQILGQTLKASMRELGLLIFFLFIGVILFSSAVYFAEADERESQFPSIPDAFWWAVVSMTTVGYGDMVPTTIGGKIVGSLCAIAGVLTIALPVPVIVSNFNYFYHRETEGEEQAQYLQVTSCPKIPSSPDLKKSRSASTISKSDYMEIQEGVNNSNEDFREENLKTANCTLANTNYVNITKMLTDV

Rat whole blood = Rat whole blood (Rattus norvegicus, UniProt P15384); assay type: cell-based; settings: IL-17A release, thapsigargin, 24 Hr, at least 2 replicates
Sequence of Rat whole blood (P15384 whole entry): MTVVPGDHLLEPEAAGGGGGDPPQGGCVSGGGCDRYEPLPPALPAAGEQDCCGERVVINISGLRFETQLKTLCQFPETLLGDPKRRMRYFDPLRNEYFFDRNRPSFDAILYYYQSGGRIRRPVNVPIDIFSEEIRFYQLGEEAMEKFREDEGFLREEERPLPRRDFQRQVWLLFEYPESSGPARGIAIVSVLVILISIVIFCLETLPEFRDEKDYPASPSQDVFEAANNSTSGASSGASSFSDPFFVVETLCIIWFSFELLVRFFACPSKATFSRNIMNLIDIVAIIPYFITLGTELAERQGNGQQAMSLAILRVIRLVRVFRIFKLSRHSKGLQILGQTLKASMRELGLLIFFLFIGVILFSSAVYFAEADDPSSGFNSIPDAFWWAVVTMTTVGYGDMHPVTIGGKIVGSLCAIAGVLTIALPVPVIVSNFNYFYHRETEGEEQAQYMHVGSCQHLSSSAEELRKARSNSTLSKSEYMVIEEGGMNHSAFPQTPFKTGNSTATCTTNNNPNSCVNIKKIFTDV

human Kv1.6 = molecular target: T3, human Kv1.6 (Homo sapiens, UniProt P17658); assay: cell-based; settings: ratio of patch clamp IC50 values
T3 construct: expressed in transfected cells; host or cells: CHO
T3 sequence (P17658 whole entry): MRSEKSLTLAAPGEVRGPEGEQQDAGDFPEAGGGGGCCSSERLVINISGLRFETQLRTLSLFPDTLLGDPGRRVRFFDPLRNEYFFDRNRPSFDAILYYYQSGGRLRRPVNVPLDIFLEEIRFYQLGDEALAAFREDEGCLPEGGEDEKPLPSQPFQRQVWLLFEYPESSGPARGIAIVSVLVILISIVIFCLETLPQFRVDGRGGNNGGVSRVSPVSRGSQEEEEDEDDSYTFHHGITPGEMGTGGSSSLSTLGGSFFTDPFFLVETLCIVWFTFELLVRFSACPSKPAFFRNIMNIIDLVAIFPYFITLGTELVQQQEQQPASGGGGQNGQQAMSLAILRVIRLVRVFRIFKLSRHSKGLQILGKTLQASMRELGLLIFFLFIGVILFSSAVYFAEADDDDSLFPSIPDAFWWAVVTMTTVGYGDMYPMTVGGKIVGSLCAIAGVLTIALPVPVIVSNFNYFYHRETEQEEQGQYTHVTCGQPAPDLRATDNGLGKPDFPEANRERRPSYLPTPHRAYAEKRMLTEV

[1] = test system: Human peripheral blood mononuclear cells (PBMCs); assay type: cell-based; settings: geometric mean, at least 6 replicates, Example 5b; read-out: anti-CD3 PBMC/IL-2 IC50
Experimental: Human peripheral blood mononuclear cells (PBMCs) were used to assess the effects of Kv1.3 blocker reference compounds on T-cell activation as determined by IL-2 release after stimulation with anti-CD3.
Human PBMCs were obtained from Precision for Medicine (Frederick, MD). Cells from 5 donors were used. Plate-bound anti-CD3 was used to stimulate bulk T cells in the PBMC preparations. Briefly, 96-well plates were coated with anti-CD3 antibody for app. 16 hours at 5° C., using 50 μl of a 1 μg/ml anti-CD3 solution diluted in PBS. Thereafter the plates were washed twice.
Kv1.3 blockers were subsequently diluted in medium (RPMI 1640 with Glutamax-I containing, 10% v/v Fetal Bovine Serum, 1% v/v penicillin-streptomycin Solution) and added in a volume of 50 μl. The compounds indicated in Table 8b were used at concentrations ranging from 0.3 pM to 1000 nM (half log dilutions, starting concentrations varying).
Finally, 50.000 PBMCs in the same medium were added to each well in a volume of 50 μl, giving a final volume of 100 μl per well. The plates were incubated for 20-24 hours in a 37° C./5% CO2 incubator. After centrifugation of the plates, 25 μl supernatant was transferred to IL-2 detection plates (MSD Human IL-2 Tissue Culture Kit, cat #K151AHB-2) and IL-2 was measures as described by the manufacturer (Meso Scale Discovery, Rockville, Maryland, USA).
All values derive from at least 6 replicates.

[2] = test system: Human peripheral blood mononuclear cells (PBMCs); assay type: cell-based; settings: geometric mean, at least 4 replicates, Example 5a; read-out: anti-CD3 PBMC/IL-2 IC50
Experimental: Human peripheral blood mononuclear cells (PBMCs) were used to assess the effects of Kv1.3 blocker reference compounds on T-cell activation as determined by IL-2 (cytokine) release after stimulation with anti-CD3.
Human PBMCs were obtained from Precision for Medicine (Frederick, MD). Cells from 5 donors were used. Plate-bound anti-CD3 was used to stimulate bulk T cells in the PBMC preparations. Briefly, 96-well plates were coated with anti-CD3 antibody for 2 hrs at 37° C., using 50 μL of a 0.5 μg/mL anti-CD3 solution diluted in 1×PBS. Thereafter the plates were washed twice.
Kv1.3 blockers as shown in Table 8a were diluted in medium (RPMI 1640 with Glutamax-I containing 10% v/v Fetal Bovine Serum, 1% v/v penicillin-streptomycin solution) and added in a volume of 100 μL at concentrations ranging from 0.01 pM to 100 nM (tenfold dilutions). […] Finally, 1×10^5 PBMCs were added to each well in a volume of 100 μL, giving a final volume of 200 μL per well. The plates were incubated for 20-24 hours in a 37 °C/5% CO2 incubator. After centrifugation of the plates, 25 μl supernatant was transferred to IL-2 detection plates (MSD Human IL-2 Tissue Culture Kit, cat #K151AHB-2) and IL-2 was measures as described by the manufacturer (Meso Scale Discovery, Rockville, Maryland, USA).
Results are shown in Table 8a as geometric mean of IC50 values obtained from anti-CD3 stimulated human PBMC assays. All values derive from at least 4 replicates.

Row | Compound | Selectivity ratio Kv1.1/Kv1.3 (human Kv1.1) | Selectivity ratio Kv1.2/Kv1.3 (human Kv1.2) | IC50 (Rat whole blood) [nM] | Selectivity ratio Kv1.6/Kv1.3 (human Kv1.6) | IC50 [1] [nM] | IC50 [2] [nM]
1 | CC[C@H](C)[C@@H]1NC(=O)[C@H](C)NC(=O)[C@H](CCCCN)NC(=O)[C@H](CC(C)C)NC(=O)[C@@H]2CSSC[C@@H](C(=O)N[C@@H](Cc3ccc(O)cc3)C(=O)N3CCC[C@H]3C(=O)N[C@@H](CCCNC(=N)N)C(=O)O)NC(=O)[C@H](CCCCN)NC(=O)[C@@H]3CSSC[C@H](NC(=O)[C@H](CCC(=O)O)NC(=O)[C@H](C(C)C)NC(=O)[C@H](CO)NC(=O)[C@H](C)NC(=O)[C@H](CO)NC(=O)[C@@H](NC(=O)[C@H](CCCNC(=N)N)NC(=O)[C@H](CCSC)NC(=O)[C@H](CC(=O)O)NC(=O)[C@H](CCSC)NC(=O)[C@@H](N)CCC(N)=O)CSSC[C@H](NC(=O)[C@H](CCCCN)NC(=O)CNC(=O)[C@H](Cc4ccccc4)NC(=O)[C@H]([C@@H](C)CC)NC(=O)[C@H](CO)NC(=O)CNC1=O)C(=O)N[C@@H](CCSC)C(=O)N[C@@H](CC(N)=O)C(=O)N[C@@H](CCCCN)C(=O)N[C@@H](CCCCN)C(=O)N3)C(=O)N[C@@H](CCCCN)C(=O)N[C@@H](CCC(N)=O)C(=O)N[C@@H](CCCCN)C(=O)N2 [compound 15] (H-QMDMRCSASVECKQKCLKAIGSIFGKCMNKKCKCYPR-OH; disulfide 6-27, 12-32, 16-34) | >7900 | 1364 | 0.17 | >7900 | 0.09 | 
2 | CC[C@H](C)[C@@H]1NC(=O)[C@H](C)NC(=O)[C@H](CCCCN)NC(=O)[C@H](CC(C)C)NC(=O)[C@@H]2CSSC[C@@H](C(=O)N[C@@H](Cc3ccc(O)cc3)C(=O)N3CCC[C@H]3C(=O)N[C@@H](CCCNC(=N)N)C(N)=O)NC(=O)[C@H](CCCCN)NC(=O)[C@@H]3CSSC[C@H](NC(=O)[C@H](CCC(=O)O)NC(=O)[C@H](C(C)C)NC(=O)[C@H](CO)NC(=O)[C@H](C)NC(=O)[C@H](CO)NC(=O)[C@@H](NC(=O)[C@H](CCCNC(=N)N)NC(=O)[C@H](CCSC)NC(=O)[C@H](CC(=O)O)NC(=O)[C@H](CCSC)NC(=O)[C@@H](N)CC(N)=O)CSSC[C@H](NC(=O)[C@H](CCCCN)NC(=O)CNC(=O)[C@H](Cc4ccccc4)NC(=O)[C@H]([C@@H](C)CC)NC(=O)[C@H](CO)NC(=O)CNC1=O)C(=O)N[C@@H](CCSC)C(=O)N[C@@H](CC(N)=O)C(=O)N[C@@H](CCCCN)C(=O)N[C@@H](CCCCN)C(=O)N3)C(=O)N[C@@H](CCCCN)C(=O)N[C@@H](C(C)C)C(=O)N[C@@H](CCCCN)C(=O)N2 [compound 22] (H-NMDMRCSASVECKVKCLKAIGSIFGKCMNKKCKCYPR-NH2; disulfide 6-27, 12-32, 16-34) | >7200 | 159 | 0.88 | 2182 |  | 0.4
3 | CC[C@H](C)[C@@H]1NC(=O)[C@H](C)NC(=O)[C@H](CC(=O)O)NC(=O)[C@H](CC(C)C)NC(=O)[C@@H]2CSSC[C@@H](C(=O)N[C@@H](Cc3ccc(O)cc3)C(=O)N3CCC[C@H]3C(=O)N[C@@H](CCCNC(=N)N)C(N)=O)NC(=O)[C@H](CCCCN)NC(=O)[C@@H]3CSSC[C@H](NC(=O)[C@H](CCC(=O)O)NC(=O)[C@H](C(C)C)NC(=O)[C@H](CO)NC(=O)[C@H](C)NC(=O)[C@H](CO)NC(=O)[C@@H](NC(=O)[C@H](CCCNC(=N)N)NC(=O)[C@H](CCSC)NC(=O)[C@H](CC(=O)O)NC(=O)[C@H](CCSC)NC(=O)[C@@H](N)CC(N)=O)CSSC[C@H](NC(=O)[C@H](CCCCN)NC(=O)CNC(=O)[C@H](Cc4ccccc4)NC(=O)[C@H]([C@@H](C)CC)NC(=O)[C@H](CO)NC(=O)CNC1=O)C(=O)N[C@@H](CCSC)C(=O)N[C@@H](CC(N)=O)C(=O)N[C@@H](CCCCN)C(=O)N[C@@H](CCCCN)C(=O)N3)C(=O)N[C@@H](CCCCN)C(=O)N[C@@H](CCC(N)=O)C(=O)N[C@@H](CCCCN)C(=O)N2 [compound 25] (H-NMDMRCSASVECKQKCLDAIGSIFGKCMNKKCKCYPR-NH2; disulfide 6-27, 12-32, 16-34) | >14300 | 471 | 1.2 | 12045 |  | 0.1
4 | CC[C@H](C)[C@@H]1NC(=O)[C@H](C)NC(=O)[C@H](CCCCN)NC(=O)[C@H](CC(C)C)NC(=O)[C@@H]2CSSC[C@@H](C(=O)N[C@@H](Cc3ccc(O)cc3)C(=O)N3CCC[C@H]3C(=O)N[C@@H](CCCNC(=N)N)C(N)=O)NC(=O)[C@H](CCCCN)NC(=O)[C@@H]3CSSC[C@H](NC(=O)[C@H](CCC(=O)O)NC(=O)[C@H](C(C)C)NC(=O)[C@H](CO)NC(=O)[C@H](C)NC(=O)[C@H](CO)NC(=O)[C@@H](NC(=O)[C@H](CCCNC(=N)N)NC(=O)[C@H](CCSC)NC(=O)[C@H](CC(=O)O)NC(=O)[C@H](CCSC)NC(=O)[C@@H](N)CC(N)=O)CSSC[C@H](NC(=O)[C@H](CCCCN)NC(=O)CNC(=O)[C@H](Cc4ccccc4)NC(=O)[C@H](CCCNC(=N)N)NC(=O)[C@H](CO)NC(=O)CNC1=O)C(=O)N[C@@H](CCSC)C(=O)N[C@@H](CC(N)=O)C(=O)N[C@@H](CCCCN)C(=O)N[C@@H](CCCCN)C(=O)N3)C(=O)N[C@@H](CCCCN)C(=O)N[C@@H](CCC(N)=O)C(=O)N[C@@H](CCCCN)C(=O)N2 [compound 39] (H-NMDMRCSASVECKQKCLKAIGSRFGKCMNKKCKCYPR-NH2; disulfide 6-27, 12-32, 16-34) | >15000 | 88 | 2.5 | 963 |  | 0.1
5 | CCCC[C@@H]1NC(=O)[C@@H]2CSSC[C@H](NC(=O)[C@H](CCCNC(=N)N)NC(=O)[C@H](CCCC)NC(=O)[C@H](CC(=O)O)NC(=O)[C@H](CCCC)NC(=O)[C@@H](N)CC(N)=O)C(=O)N[C@@H](CO)C(=O)N[C@@H](C)C(=O)N[C@@H](CO)C(=O)N[C@@H](C(C)C)C(=O)N[C@@H](CCC(=O)O)C(=O)N[C@H]3CSSC[C@H](NC(=O)[C@H](CCCCN)NC(=O)[C@H](CCCCN)NC(=O)[C@H](CC(N)=O)NC1=O)C(=O)N[C@@H](CCCCN)C(=O)N[C@H](C(=O)N[C@@H](Cc1ccc(O)cc1)C(=O)N1CCC[C@H]1C(=O)N[C@@H](CCCNC(=N)N)C(N)=O)CSSC[C@H](NC(=O)[C@H](CO)NC(=O)[C@H](CCC(N)=O)NC(=O)[C@H](CCCCN)NC3=O)C(=O)N[C@@H](CC(C)C)C(=O)N[C@@H](CCCCN)C(=O)N[C@@H](C)C(=O)N[C@@H]([C@@H](C)CC)C(=O)NCC(=O)N[C@@H](CO)C(=O)N[C@@H]([C@@H](C)CC)C(=O)N[C@@H](Cc1ccccc1)C(=O)NCC(=O)N[C@@H](CCCCN)C(=O)N2 [compound 52] (H-N[Nle]D[Nle]RCSASVECKQSCLKAIGSIFGKC[Nle]NKKCKCYPR-NH2; disulfide 6-27, 12-32, 16-34) | >8200 | >8200 | 0.63 | >8200 | 0.07 | 
6 | H-NMDMRCSASVECKQKCLKAIGSIFGKCMNKKCKCYPRRRTA-NH2 (disulfide 6-27, 12-32, 16-34) [compound 28] | 4280 | 191 | 0.57 | 1472 | 0.06 | 
